Assay [1] deals with HT-29. The experiment in a line: Cytotoxicity against human HT-29 cells after 48 hrs by sulforhodamine B assay. The assay is classed as functional. To be noted: HT-29, 48 h. On the technique in general: The SRB assay estimates cell density from bound dye.
The subject of assay [2] is A549. The experiment in a line: Cytotoxicity against human A549 cells after 48 hrs by sulforhodamine B assay. The assay is classed as functional. To be noted: A549, 48 h.
The test system of assay [3] is MDA-MB-231. In words: Cytotoxicity against human MDA-MB-231 cells after 48 hrs by sulforhodamine B assay. The assay is classed as functional. Conditions: MDA-MB-231, 48 h.
For assay [4], the target named is T1, Proteinase-activated receptor 1 (Homo sapiens) (UniProt P25116).
T1 sequence (whole entry): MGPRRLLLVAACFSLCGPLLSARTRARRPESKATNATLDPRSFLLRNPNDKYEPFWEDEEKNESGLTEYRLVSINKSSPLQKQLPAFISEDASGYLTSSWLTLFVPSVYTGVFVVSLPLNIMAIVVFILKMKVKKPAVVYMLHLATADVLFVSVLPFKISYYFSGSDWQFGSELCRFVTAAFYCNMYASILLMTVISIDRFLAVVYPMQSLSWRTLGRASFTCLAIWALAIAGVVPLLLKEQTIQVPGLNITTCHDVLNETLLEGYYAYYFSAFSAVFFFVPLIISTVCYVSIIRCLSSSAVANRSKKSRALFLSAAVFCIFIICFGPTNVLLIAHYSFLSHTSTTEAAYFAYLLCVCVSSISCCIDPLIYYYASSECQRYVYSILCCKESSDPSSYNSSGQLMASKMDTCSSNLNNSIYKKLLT
The experiment in a line: Antagonist activity at PAR1 in human platelet rich plasma assessed as inhibition of SFLLRN-induced platelet aggregation at 150 uM after 5 mins by aggregometric analysis relative to control.

The source made the active and inactive calls. No cut-off for these calls is given here. Bounds are passed on as bounds.

What is called GI50 is the concentration at which growth is held to half of that of the control. A higher GI50 goes with lower sensitivity of the cells. A word on the inhibition: it is the share of the control response that was lost under treatment.

For the compound `COc1cccc2c1C(=O)c1c(O)c3c(c(O)c1C2=O)C[C@@](O)(C(=O)CO)C[C@@H]3O[C@H]1C[C@H](N)[C@H](O)[C@H](C)O1` [DOXORUBICIN], the results for the GI50 in assay [1], in assay [2] and in assay [3] were 0.1 µM, 0.07 µM and 0.09 µM, respectively.
For `Cc1c(C)c(S(=O)(=O)/N=C(\N)NCCC[C@H]2C(=O)N(Cc3ccccc3)C[C@H]([C@H](Cc3ccccc3)NC(=O)OC(C)(C)C)N2Cc2ccccc2)c(C)c2c1OC(C)(C)C2`, the inhibition entry in assay [4] is “Active”.
For `CC(C)(C)OC(=O)CN1[C@@H](CCCCNC(=O)OC(C)(C)C)C(=O)NC[C@H]1[C@H](Cc1cn(C(=O)OC(C)(C)C)c2ccccc12)NC(=O)OC(C)(C)C`, the GI50 in assay [1] is 5.78 µM; in assay [2], 8.6 µM; in assay [3], 6.72 µM. In assay [4], the inhibition result is “inactive”.
On to `Cc1c(C)c(S(=O)(=O)/N=C(/N)NCCC[C@H]2C(=O)N(Cc3ccccc3)C[C@H]([C@H](Cc3cn(C(=O)OC(C)(C)C)c4ccccc34)NC(=O)OC(C)(C)C)N2CC(=O)OC(C)(C)C)c(C)c2c1OC(C)(C)C2`, for which the inhibition entry in assay [4] was “Active”.
Still for that read-out and setting: as for `Cc1c(C)c(S(=O)(=O)/N=C(\N)NCCC[C@H]2C(=O)N(Cc3ccccc3)C[C@H]([C@H](Cc3ccccc3)NC(=O)NCc3ccccc3)N2Cc2ccccc2)c(C)c2c1OC(C)(C)C2`, the entry is “Active”.
Same read-out and setting: as for `Cc1c(C)c(S(=O)(=O)/N=C(\N)NCCC[C@H]2C(=O)N(Cc3ccccc3)C[C@@H]([C@H](Cc3ccccc3)NC(=O)NCc3ccccc3)N2Cc2ccccc2)c(C)c2c1OC(C)(C)C2`, the figure is 57%; as for `Cc1c(C)c(S(=O)(=O)/N=C(\N)NCCC[C@H]2C(=O)N(Cc3ccccc3)C[C@H]([C@H](Cc3ccccc3)NC(=O)OC(C)(C)C)N2CC(=O)OC(C)(C)C)c(C)c2c1OC(C)(C)C2`, “Active”.
As for `CC(C)(C)OC(=O)NCCCC[C@@H]1N[C@H]([C@H](Cc2cn(C(=O)OC(C)(C)C)c3ccccc23)NC(=O)OC(C)(C)C)CNC1=O`, the GI50 amounted to 5.43 µM in assay [1], 9.75 µM in assay [2] and 5.31 µM in assay [3]. In assay [4], the inhibition result was “inactive”.
`Cc1c(C)c(S(=O)(=O)/N=C(/N)NCCC[C@H]2C(=O)N(Cc3ccccc3)C[C@@H]([C@H](Cc3cn(C(=O)OC(C)(C)C)c4ccccc34)NC(=O)OC(C)(C)C)N2Cc2ccccc2)c(C)c2c1OC(C)(C)C2`: the inhibition entry in assay [4] is “Active”.
Turning to `CC(C)(C)OC(=O)CN1[C@@H]([C@H](Cc2cn(C(=O)OC(C)(C)C)c3ccccc23)NC(=O)OC(C)(C)C)CN(Cc2ccccc2)C(=O)[C@@H]1CCCCNC(=O)OC(C)(C)C`, the results for the GI50 in assay [1], in assay [2] and in assay [3] were 4.44 µM, more than 10 µM and 1.56 µM, respectively. Besides, in assay [4], the inhibition result is “inactive”.
Regarding `Cc1c(C)c(S(=O)(=O)/N=C(/N)NCCC[C@H]2C(=O)NC[C@H]([C@H](Cc3ccccc3)NC(=O)OC(C)(C)C)N2Cc2ccccc2)c(C)c2c1OC(C)(C)C2`, the results for the GI50 in assay [1], in assay [2] and in assay [3] were 5.26 µM, 1.24 µM and 6.83 µM, respectively.
On to `CC(C)(C)OC(=O)CN1[C@@H]([C@H](Cc2cn(C(=O)OC(C)(C)C)c3ccccc23)NC(=O)OC(C)(C)C)CNC(=O)[C@@H]1CCCCNC(=O)OC(C)(C)C`, for which the concentration for 50% growth inhibition (GI50) came to 3.09 µM in assay [1], 4.57 µM in assay [2] and 2.29 µM in assay [3]. The inhibition result in assay [4] is “inactive”.
On the same counts, the results for `CC(C)(C)OC(=O)NCCCC[C@H]1C(=O)NC[C@H]([C@H](Cc2cn(C(=O)OC(C)(C)C)c3ccccc23)NC(=O)OC(C)(C)C)N1Cc1ccccc1` are 4.58 µM, 4.86 µM, 2.92 µM and “inactive”.
As for `Cc1c(C)c(S(=O)(=O)/N=C(/N)NCCC[C@H]2C(=O)N(Cc3ccccc3)C[C@H](CCc3ccccc3)N2Cc2ccccc2)c(C)c2c1OC(C)(C)C2`, the inhibition entry in assay [4] was “Active”.
`Cc1c(C)c(S(=O)(=O)/N=C(/N)NCCC[C@H]2C(=O)NC[C@@H]([C@H](Cc3ccccc3)NC(=O)OC(C)(C)C)N2Cc2ccccc2)c(C)c2c1OC(C)(C)C2`: the values for the GI50 in assay [1], in assay [2] and in assay [3] were 3.29 µM, 5.39 µM and 6.04 µM, respectively.
Take `Cc1c(C)c(S(=O)(=O)/N=C(\N)NCCC[C@H]2C(=O)N(Cc3ccccc3)C[C@H]([C@H](Cc3c[nH]c4ccccc34)NC(=O)NCc3ccccc3)N2Cc2ccccc2)c(C)c2c1OC(C)(C)C2`: the inhibition result in assay [4] was “Active”.
Turning to `Cc1c(C)c(S(=O)(=O)/N=C(/N)NCCC[C@H]2C(=O)N(Cc3ccccc3)C[C@@H]([C@H](Cc3cn(C(=O)OC(C)(C)C)c4ccccc34)NC(=O)OC(C)(C)C)N2CC(=O)OC(C)(C)C)c(C)c2c1OC(C)(C)C2`, the inhibition result in assay [4] is “Active”.
In the case of `CC(C)(C)OC(=O)NCCCC[C@@H]1N[C@@H]([C@H](Cc2cn(C(=O)OC(C)(C)C)c3ccccc23)NC(=O)OC(C)(C)C)CNC1=O`, the GI50 in assay [1] is 5.43 µM; in assay [2] it was more than 10 µM; in assay [3], 5.56 µM. For the same compound, in assay [4], the inhibition result was “inactive”.
In the case of `Cc1c(C)c(S(=O)(=O)/N=C(\N)NCCC[C@H]2C(=O)N(Cc3ccccc3)C[C@@H]([C@H](Cc3ccccc3)NC(=O)OC(C)(C)C)N2Cc2ccccc2)c(C)c2c1OC(C)(C)C2`, in assay [4], the inhibition result is “Active”.
Same read-out and setting: as for `Cc1c(C)c(S(=O)(=O)/N=C(/N)NCCC[C@H]2C(=O)N(Cc3ccccc3)C[C@@H](CCc3cn(C(=O)OC(C)(C)C)c4ccccc34)N2Cc2ccccc2)c(C)c2c1OC(C)(C)C2`, the entry is “Active”.
On to `Cc1c(C)c(S(=O)(=O)/N=C(/N)NCCC[C@H]2C(=O)NC[C@H]([C@H](Cc3cn(C(=O)OC(C)(C)C)c4ccccc34)NC(=O)OC(C)(C)C)N2Cc2ccccc2)c(C)c2c1OC(C)(C)C2`, for which the GI50 in assay [1] stood at 3.78 µM; in assay [2], 4.89 µM; in assay [3] it was 4.44 µM.
Turning to `Cc1c(C)c(S(=O)(=O)/N=C(/N)NCCC[C@H]2C(=O)NC[C@@H]([C@H](Cc3cn(C(=O)OC(C)(C)C)c4ccccc34)NC(=O)OC(C)(C)C)N2CC(=O)OC(C)(C)C)c(C)c2c1OC(C)(C)C2`, the GI50 in assay [1] amounted to 2.92 µM; in assay [2] it was 7.68 µM; in assay [3], 4.87 µM.
For `Cc1c(C)c(S(=O)(=O)/N=C(/N)NCCC[C@H]2C(=O)NC[C@@H]([C@H](Cc3cn(C(=O)OC(C)(C)C)c4ccccc34)NC(=O)OC(C)(C)C)N2Cc2ccccc2)c(C)c2c1OC(C)(C)C2`, in that order: 3.78 µM, 5.55 µM and 4.55 µM.
As for `Cc1c(C)c(S(=O)(=O)/N=C(/N)NCCC[C@H]2C(=O)N(Cc3ccccc3)C[C@@H](CCc3ccccc3)N2Cc2ccccc2)c(C)c2c1OC(C)(C)C2`, the inhibition result in assay [4] is “Active”.
In the case of `CC(C)(C)OC(=O)NCCCC[C@H]1C(=O)N(Cc2ccccc2)C[C@H]([C@H](Cc2cn(C(=O)OC(C)(C)C)c3ccccc23)NC(=O)OC(C)(C)C)N1Cc1ccccc1`, the GI50 in assay [1] was more than 10 µM; in assay [2] it was more than 10 µM; in assay [3], 3.33 µM. Also, the inhibition result in assay [4] was “inactive”.
For the compound `CC(C)(C)OC(=O)NCCCC[C@H]1C(=O)N(Cc2ccccc2)C[C@@H]([C@H](Cc2cn(C(=O)OC(C)(C)C)c3ccccc23)NC(=O)OC(C)(C)C)N1Cc1ccccc1`, the values for the GI50 in assay [1], in assay [2] and in assay [3] were 3.83 µM, more than 10 µM and 1.48 µM, respectively. The inhibition entry in assay [4] was “inactive”.
For the compound `Cc1c(C)c(S(=O)(=O)/N=C(/N)NCCC[C@H]2C(=O)NC[C@H]([C@H](Cc3cn(C(=O)OC(C)(C)C)c4ccccc34)NC(=O)OC(C)(C)C)N2CC(=O)OC(C)(C)C)c(C)c2c1OC(C)(C)C2`, the GI50 in assay [1] was determined as 4.98 µM; in assay [2], 3.25 µM; in assay [3], 4.54 µM.
As to `CC(C)(C)OC(=O)NCCCC[C@H]1C(=O)NC[C@@H]([C@H](Cc2cn(C(=O)OC(C)(C)C)c3ccccc23)NC(=O)OC(C)(C)C)N1Cc1ccccc1`, the values for the GI50 in assay [1], in assay [2] and in assay [3] were 4.45 µM, 5.56 µM and 4.58 µM, respectively. For the same compound, in assay [4], the inhibition result is “inactive”.
For `Cc1c(C)c(S(=O)(=O)/N=C(\N)NCCC[C@H]2C(=O)N(Cc3ccccc3)C[C@@H]([C@H](Cc3c[nH]c4ccccc34)NC(=O)NCc3ccccc3)N2Cc2ccccc2)c(C)c2c1OC(C)(C)C2`, the inhibition result in assay [4] is “Active”.
On the same count and under the same terms, to `Cc1c(C)c(S(=O)(=O)/N=C(/N)NCCC[C@H]2C(=O)N(Cc3ccccc3)C[C@H]([C@H](Cc3cn(C(=O)OC(C)(C)C)c4ccccc34)NC(=O)OC(C)(C)C)N2Cc2ccccc2)c(C)c2c1OC(C)(C)C2` belongs “Active”; to `CC(C)(C)OC(=O)CN1[C@@H](CCCCNC(=O)OC(C)(C)C)C(=O)N(Cc2ccccc2)C[C@H]1[C@H](Cc1cn(C(=O)OC(C)(C)C)c2ccccc12)NC(=O)OC(C)(C)C`, “inactive”; to `Cc1c(C)c(S(=O)(=O)/N=C(\N)NCCC[C@H]2C(=O)N(Cc3ccccc3)C[C@@H]([C@H](Cc3ccccc3)NC(=O)OC(C)(C)C)N2CC(=O)OC(C)(C)C)c(C)c2c1OC(C)(C)C2`, “Active”.
With `Cc1c(C)c(S(=O)(=O)/N=C(/N)NCCC[C@H]2C(=O)N(Cc3ccccc3)C[C@H](CCc3cn(C(=O)OC(C)(C)C)c4ccccc34)N2Cc2ccccc2)c(C)c2c1OC(C)(C)C2`, the inhibition entry in assay [4] was “Active”.

Values taken from ChEMBL document CHEMBL3085629, “Highly functionalized 2-oxopiperazine-based peptidomimetics: an approach to PAR1 antagonists” (2013).
